# Laboratory results reported in US8703947B2, “Compounds for treatment of Alzheimer's disease” (Purdue Research Foundation, priority 2008, dated 2014).
# Experiments:
# memapsin 2 = memapsin 2 (Homo sapiens (Human), UniProt P56817); test: Inhibition of memapsin 2 catalytic activity toward fluorogenic substrate FS-2; type: biochemical; conditions: memapsin 2, pH 4, 37° C., 20 minutes pre-incubation, tight-binding model
# Protocol: Inhibition of Memapsin 1, Memapsin 2, and Cathepsin D Catalytic Activity. A substrate peptide H3N-ELDLAVEFWHDR—CO2 (SEQ ID NO:1) (used for inhibition assay of memapsin 2, memapsin 1, and cathepsin D) was dissolved at 2 mg/mL in DMSO and diluted 1:100 in 0.1 M sodium acetate, pH 4.0 just prior to assay. Inhibitor dissolved in DMSO was diluted into 0.1 M sodium acetate, pH 4.0 (1:100 dilution). A 50 μL aliquot of the inhibitor solution in pH 4 buffer was combined with 150 μL of 0.1 M sodium acetate containing 100-200 nM of memapsin 1, memapsin 2, or cathepsin D. Following a pre-incubation at 37° C., the proteolytic assay was initated by addition of 50 μl of the substrate diluted into pH 4 buffer, and incubation continued at 37° C. Aliquots were removed at time intervals, and combined with an equal volume of MALDI-TOF matrix ([…] in acetone, 20 mg/mL) and immediately spotted in duplicate onto a stainless-steel MALDI sample plate. MALDI-TOF mass spectrometry was performed on a PE Biosystems Voyager DE instrument at the Molecular Biology Resource Center on campus. The instrument was operated at 25,000 accelerating volts in positive mode with a 150 ns delay. Ions with a mass-to-charge ratio (m/z) were detected in the range of 650-2000 atomic mass units. Data were analyzed by the Voyager Data Explorer module to obtain ion intensity data for mass species of substrates and corresponding products in a given mixture. Relative product formation was calculated as the ratio of signal intensity of the product to the sum of signal intensities of both product and the corresponding substrate. Relative product formed per unit time was obtained from non-linear regression analysis of the data representing the initial 15% formation of product using the model: 1−e^−kT where k was the relative hydrolytic rate constant and T was time in seconds. Alternatively, relative hydrolytic rates were determined using a fluorogenic cleavage assay (Ermolieff, J. et al., Biochemistry, 39: 12450-12456 (2000)). Initial rates from either method were expressed relative to uninhibited controls and the inhibition constant Ki was determined by a non-linear fit to a tight-binding model of competitive inhibition (Bieth, J., Bayer—Symposium V. Proteinase Inhibitors, pp 463-469, Spinger-Varlag, Berlin (1994)). Results are shown in
# Inhibition of Memapsin 2. The potencies of compounds were determined by measurement of their inhibition of memapsin 2 catalytic activity toward a fluorescent substrate. Kinetic inhibition experiments were performed using the procedure as described in Ermolieff, et al. Biochemistry 39:12450-12456 (2000), the teachings of which are incorporated hereby in their entirety. Briefly, assays were performed at pH 4, 37° C., by pre-incubation of memapsin 2 enzyme with compound for 20 minutes. Activity measure was initiated by addition of a fluorogenic substrate FS-2 (Bachem Americas, Torrance, Calif.). Fluorescent signal increase over time was measured as a rate of hydrolysis of the peptide substrate. Inhibition of hydrolytic rate was expressed relative to uninhibited controls and fit to a model for tight-binding inhibitors (J. Bieth, in “Proteinase Inhibitors,” Bayer Symposium V, 463-469, 1974).
# [1] = tested on: Aβ production in Chinese hamster ovary cells that over-express human APP695 with the London and Swedish mutations; test: Cellular Aβ IC50 determination (Aβ40 sandwich ELISA); type: cell-based; conditions: Cricetulus griseus; Aβ40 content after 24 h incubation, CHO cells over-expressing human APP695
# Protocol: Cellular Aβ IC50 Determinations. The potency of compounds against memapsin 2 catalytic activity was determined in a cellular assay of Aβ production. […] Chinese hamster ovary cells that over-express human APP695 with the London and Swedish mutations were seeded in multi-well plates at 10% confluency. Compounds are dissolved in DMSO to concentrations near 1 mM, and diluted into culture media to a final concentration near 4 μM (final 0.4% DMSO). Compounds were diluted serially and applied to cells in multi-well plates 48 h after seeding. Incubation was continued in 5% CO2 at 37 degrees C. for 24 h. Aliquots were removed and assayed for Aβ40 content using a sandwich ELISA (BioSource International). Amount of Aβ40 over the range of concentration of compounds, relative to control incubations, were fit to a 4-parameter IC50 model.
# Chain of memapsin 2 (P56817 46-501): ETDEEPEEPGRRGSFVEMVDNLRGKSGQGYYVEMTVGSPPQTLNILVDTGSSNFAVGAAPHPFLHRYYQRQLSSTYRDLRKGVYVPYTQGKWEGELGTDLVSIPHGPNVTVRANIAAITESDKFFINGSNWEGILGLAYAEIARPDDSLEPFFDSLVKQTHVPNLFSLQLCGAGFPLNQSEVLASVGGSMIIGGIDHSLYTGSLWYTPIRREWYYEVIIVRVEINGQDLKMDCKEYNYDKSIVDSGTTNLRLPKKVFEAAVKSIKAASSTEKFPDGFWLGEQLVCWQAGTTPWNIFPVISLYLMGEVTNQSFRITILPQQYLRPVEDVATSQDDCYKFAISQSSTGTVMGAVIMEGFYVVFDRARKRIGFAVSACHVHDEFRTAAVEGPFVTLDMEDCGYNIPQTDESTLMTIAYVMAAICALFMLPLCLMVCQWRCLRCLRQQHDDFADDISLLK
Compound,Ki (memapsin 2),IC50 [1]
"Cc1nc(CN(C)C(=O)c2cccc(C(=O)N[C@@H](Cc3ccccc3)[C@H](O)C3NCCN(Cc4ccccc4)C3=O)c2)cs1 (single isomer, unassigned) [Example 11a]",< 1 µM,< 10 µM
"Cc1nc(CN(C)C(=O)c2cccc(C(=O)N[C@@H](Cc3ccccc3)[C@H](O)C3NCCN(Cc4ccccc4)C3=O)c2)cs1 (single isomer, unassigned) [Example 11b]",> 10 µM,–
C[C@@H](NC(=O)c1cc(C(=O)N[C@@H](Cc2ccccc2)[C@H](O)C2NCCN(Cc3ccccc3)C2=O)cc(N(C)S(C)(=O)=O)c1)c1ccccc1 (some centres unmarked) [Example 10],< 10 µM,–
C[C@@H](NC(=O)c1cc(C(=O)N[C@@H](Cc2ccccc2)[C@H](O)C2Cc3ccccc3CN2)cc(N(C)S(C)(=O)=O)c1)c1ccccc1 (some centres unmarked) [GRL-0196-AL],> 10 µM,–
Cc1csc([C@H]2CCCN2C(=O)c2cccc(C(=O)N[C@@H](Cc3ccccc3)[C@H](O)[C@@H]3NCCN(Cc4ccccc4)C3=O)c2)n1 [GRL-0299],< 1 µM,–
Cc1csc([C@H]2CCCN2C(=O)c2cccc(C(=O)N[C@@H](Cc3ccccc3)[C@H](O)[C@@H]3NCCN(CC(C)C)C3=O)c2)n1 [GRL-0669AL],< 1 µM,–
COc1ccc(CN2CCN[C@@H]([C@@H](O)[C@H](Cc3ccccc3)NC(=O)c3cccc(C(=O)N4CCC[C@@H]4c4nc(C)cs4)c3)C2=O)cc1 [GRL-0819AL],< 1 µM,–
COc1ccc(CN2CCN[C@@H]([C@@H](O)[C@H](Cc3ccccc3)NC(=O)c3cc(C(=O)N[C@H](C)c4ccccc4)cc(N(C)S(C)(=O)=O)c3)C2=O)cc1 [GRL-0889AL],< 1 µM,–
COc1cccc(CN2CCN[C@@H]([C@@H](O)[C@H](Cc3ccccc3)NC(=O)c3cccc(C(=O)N4CCC[C@@H]4c4nc(C)cs4)c3)C2=O)c1 [GRL-1069AL],< 1 µM,–

# Next, values leading:
Ki (memapsin 2),IC50 [1],Compound
> 1 µM,–,"COc1cccc(C[C@@H]2CC[C@H]([C@@H](O)CNC(=O)c3cc(C(=O)N[C@H](C)c4ccccc4)cc(N(C)S(C)(=O)=O)c3)N2C(=O)OC(C)(C)C)c1 [Comparison compound A, reference compound]"
> 10 µM,–,"COc1cccc(C[C@@H]2CC[C@H]([C@@H](O)CNC(=O)c3cc(C(=O)N[C@H](C)c4ccccc4)cc(N(C)S(C)(=O)=O)c3)N2)c1 [Comparison compound B, reference compound]"
< 1 µM,–,CC(C)CN1CCN[C@@H]([C@@H](O)[C@H](Cc2ccccc2)NC(=O)c2cc(C(=O)N[C@H](C)c3ccccc3)cc(N(C)S(C)(=O)=O)c2)C1=O [GRL-0849AL]
< 1 µM,–,COc1cccc(CN2CCN[C@@H]([C@@H](O)[C@H](Cc3ccccc3)NC(=O)c3cc(C(=O)N[C@H](C)c4ccccc4)cc(N(C)S(C)(=O)=O)c3)C2=O)c1 [GRL-1079AL]
